From patent publication US20180360093A1, “NUTRITIONAL COMPOSITIONS AND INFANT FORMULAS TO PROMOTE MYELINATION IN THE BRAIN” (NESTEC S.A., priority 2015, published 2018)

tested on: brain myelination; assay: Cross-sectional correlation analysis (GLM) of formula nutrient composition versus brain myelination (MWF by mcDESPOT MRI); format: in vivo, human; settings: children up to 5 years fed different infant formulas during infancy; voxel-wise correlations, p<0.05 corrected
Description: MRI brain scans of infants and children between 0 and 5 years were acquired using a white matter imaging technique. This technique provides a quantitative measure, the Myelin Water Fraction (MWF), which is a surrogate marker of myelin content. When mapped as a function of time across early childhood, myelination trajectories can be generated.
Infant formula composition: six infant formulas fed to infants participating in study were analyzed for their composition/level of myelin-relevant nutrients.
Infants included in this study were drawn from a larger longitudinal study of normal brain and behavioral development: the Brown university Assessment of Myelination and Behavior Across Maturation (BAMBAM). To focus on neurotypical development, children with known potential risk factors for learning, neurologic, or psychiatric disorders were specifically excluded during recruitment and enrollment. Thus, children with in utero alcohol or illicit substance exposure, premature (<37 weeks gestation) or multiple birth, fetal ultrasound abnormalities, complicated pregnancy (e.g., preeclampsia), APGAR scores<8, NICU admission, neurological disorder (e.g., head injury, epilepsy), psychiatric or developmental disorders in the infant, parents or siblings (including maternal depression requiring medication) were excluded. Ongoing screenings, such as the MCAT for autism, or CBCL for behavioral problems, were further used to remove enrolled children with clinically concerning behaviors or overt medical conditions (such as autism spectrum disorders).
A combination of retrospective and prospective data were acquired from parents via detailed medical histories and parental interview on type of infant formula used, percentage of breastfeeding to formula feeding, and length of exclusive breastfeeding. This information was updated at each study visit, which occurred approximately every 6 months for children under 2 years, and yearly for older children. Using this information, children were categorized into one of 2 groups: #1. Exclusively formula-fed; and #2. Exclusively breastfed for at least 90 days (3 months). Children who were fed a combination of breastmilk and formula within 3 months were excluded from our analysis. Infants within the exclusively formula-fed group were further sub-divided based on parental reports of the main infant formula used throughout the first 3 months. Main formula was defined as that given 90% of the time or more (in the case were parents used an alternate brand during vacation, for example).
Using these criteria, 94 exclusively formula-fed infants and young children were selected into group #1. These included 13 children who received formula #2; 28 who received formula #5; 8 who received formula #3; 39 who received formula #4; 5 who received formula #1 and 1 who received formula #6. A sample of 52 exclusively breast-fed infants were also selected and matched to the over formula-fed group with regards to mean age, gestation duration, birth weight, male:female ratio, ethnicity ratio, maternal education, family size, and number of languages spoken in the home (in addition to English).
Each infant was scanned using the mcDESPOT (multicomponent Driven Equilibrium Single Pulse Observation of T1 and T2) white matter imaging technique Deoni et al. (Magn. Reson. Med. 2008, 60:1372-1387), which provides a quantitative measure of the myelin water fraction (MWF) at each imaging point throughout the brain. All infants were scanned during natural (i.e. non-sedated) sleep using acoustically-muffled mcDESPOT imaging protocols. Total imaging times ranged from 19 minutes for the youngest toddlers to 24 minutes for the older 4 year-old children.

Row | Compound | nutritional drivers for myelination (final general linear model)
1 | sphingomyelin | identified drivers
2 | C[N+](C)(C)CCO [Choline] | identified drivers
3 | CCCCC/C=C\C/C=C\C/C=C\C/C=C\CCCC(=O)O [ARA, arachidonic acid] | identified drivers
4 | Vitamin B12 | identified drivers
5 | phosphatidylinositol | identified drivers
6 | phosphatidylcholine | identified drivers
